# Patent US20080188666A1, “LINEAR PHENYL-SUBSTITUTED INDAZOLES AND INDOLES, A PROCESS FOR THEIR PRODUCTION AND THEIR USE AS ANTI-INFLAMMATORY AGENTS” (priority 2006, published 2008)
# Key:
# [1] = target: T1, mineral corticoid receptor (MR) (Homo sapiens, UniProt P08235); assay: binding to recombinantly produced mineral corticoid receptor; settings: recombinant receptor
# T1 construct: made in house
# T1 sequence (P08235 1-984): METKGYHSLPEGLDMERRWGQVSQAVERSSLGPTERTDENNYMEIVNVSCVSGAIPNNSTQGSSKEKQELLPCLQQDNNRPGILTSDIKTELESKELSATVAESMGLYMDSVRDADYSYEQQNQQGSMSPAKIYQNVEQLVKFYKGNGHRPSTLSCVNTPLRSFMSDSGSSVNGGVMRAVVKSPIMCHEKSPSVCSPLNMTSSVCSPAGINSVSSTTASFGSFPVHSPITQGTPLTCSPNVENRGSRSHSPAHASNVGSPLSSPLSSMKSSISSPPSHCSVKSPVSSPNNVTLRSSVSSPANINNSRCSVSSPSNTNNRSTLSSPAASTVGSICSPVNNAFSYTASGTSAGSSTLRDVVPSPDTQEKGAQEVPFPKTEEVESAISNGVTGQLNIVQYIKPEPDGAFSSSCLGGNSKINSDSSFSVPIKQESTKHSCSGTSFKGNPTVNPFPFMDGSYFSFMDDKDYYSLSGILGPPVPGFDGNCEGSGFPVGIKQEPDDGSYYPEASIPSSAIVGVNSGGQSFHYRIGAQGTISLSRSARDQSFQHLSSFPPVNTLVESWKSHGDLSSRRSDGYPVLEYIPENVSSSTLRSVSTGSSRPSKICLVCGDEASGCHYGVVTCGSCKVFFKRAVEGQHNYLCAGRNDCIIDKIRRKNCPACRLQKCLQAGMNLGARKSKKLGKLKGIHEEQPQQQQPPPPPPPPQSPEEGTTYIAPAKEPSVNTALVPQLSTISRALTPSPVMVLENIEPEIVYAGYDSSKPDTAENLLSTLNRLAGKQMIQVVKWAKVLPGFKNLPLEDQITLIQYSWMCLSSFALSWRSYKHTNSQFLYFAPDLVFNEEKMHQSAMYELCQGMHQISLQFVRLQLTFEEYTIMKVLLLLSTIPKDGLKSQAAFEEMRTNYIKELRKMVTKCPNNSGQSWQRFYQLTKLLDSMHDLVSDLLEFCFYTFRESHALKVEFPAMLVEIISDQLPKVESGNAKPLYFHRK
# Description: (§1) The binding of the substances to the glucocorticoid receptor (GR) and other steroid hormone receptors (mineral corticoid receptor (MR), progesterone receptor (PR) and androgen receptor (AR)) is examined with the aid of recombinantly produced receptors. Cytosol preparations of Sf9 cells, which had been infected with recombinant baculoviruses, which code for the GR, are used for the binding studies. In comparison to reference substance [^3H]-dexamethasone, the substances show a high to very high affinity to GR. IC50(GR)=6.0 nM was thus measured for the compound from Example B7; IC50(MR), IC50(PR), IC50(AR)>1 μmol.
# [2] = target: T2, progesterone receptor (PR) (Homo sapiens, UniProt P06401); assay: binding to recombinantly produced progesterone receptor; settings: recombinant receptor
# T2 construct: made in house
# T2 sequence (P06401 1-933): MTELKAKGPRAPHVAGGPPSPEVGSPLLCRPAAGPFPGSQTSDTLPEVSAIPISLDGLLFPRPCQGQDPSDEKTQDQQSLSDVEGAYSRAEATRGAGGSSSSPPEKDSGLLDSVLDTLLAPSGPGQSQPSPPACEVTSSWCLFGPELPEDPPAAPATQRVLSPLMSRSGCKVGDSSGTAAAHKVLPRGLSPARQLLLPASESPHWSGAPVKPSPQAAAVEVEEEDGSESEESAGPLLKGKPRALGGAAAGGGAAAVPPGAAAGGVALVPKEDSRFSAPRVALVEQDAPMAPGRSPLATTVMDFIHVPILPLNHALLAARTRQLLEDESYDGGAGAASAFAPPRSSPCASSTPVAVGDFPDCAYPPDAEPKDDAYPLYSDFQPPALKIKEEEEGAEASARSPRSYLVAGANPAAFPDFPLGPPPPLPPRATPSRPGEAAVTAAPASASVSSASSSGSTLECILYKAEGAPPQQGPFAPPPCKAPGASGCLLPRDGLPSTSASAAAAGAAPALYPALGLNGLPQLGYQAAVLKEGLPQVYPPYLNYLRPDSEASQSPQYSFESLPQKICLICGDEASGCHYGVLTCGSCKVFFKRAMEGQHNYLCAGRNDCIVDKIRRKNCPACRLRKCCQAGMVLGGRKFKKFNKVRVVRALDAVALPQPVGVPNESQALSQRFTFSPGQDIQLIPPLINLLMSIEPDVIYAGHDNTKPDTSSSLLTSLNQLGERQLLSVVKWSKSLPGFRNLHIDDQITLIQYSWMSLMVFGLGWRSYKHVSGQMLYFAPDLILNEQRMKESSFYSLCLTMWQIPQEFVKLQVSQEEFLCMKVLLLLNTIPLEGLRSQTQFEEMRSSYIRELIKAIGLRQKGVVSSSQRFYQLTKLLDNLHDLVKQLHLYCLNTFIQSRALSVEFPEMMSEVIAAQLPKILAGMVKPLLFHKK
# Description: as §1
# [3] = target: T3, glucocorticoid receptor (GR) (Homo sapiens, UniProt P04150); assay: binding to recombinantly produced glucocorticoid receptor, Sf9 cytosol, [3H]-dexamethasone reference; settings: recombinant GR
# T3 construct: made in house; host or cells: Sf9 cells infected with recombinant baculovirus (cytosol preparation)
# T3 sequence (P04150 1-777): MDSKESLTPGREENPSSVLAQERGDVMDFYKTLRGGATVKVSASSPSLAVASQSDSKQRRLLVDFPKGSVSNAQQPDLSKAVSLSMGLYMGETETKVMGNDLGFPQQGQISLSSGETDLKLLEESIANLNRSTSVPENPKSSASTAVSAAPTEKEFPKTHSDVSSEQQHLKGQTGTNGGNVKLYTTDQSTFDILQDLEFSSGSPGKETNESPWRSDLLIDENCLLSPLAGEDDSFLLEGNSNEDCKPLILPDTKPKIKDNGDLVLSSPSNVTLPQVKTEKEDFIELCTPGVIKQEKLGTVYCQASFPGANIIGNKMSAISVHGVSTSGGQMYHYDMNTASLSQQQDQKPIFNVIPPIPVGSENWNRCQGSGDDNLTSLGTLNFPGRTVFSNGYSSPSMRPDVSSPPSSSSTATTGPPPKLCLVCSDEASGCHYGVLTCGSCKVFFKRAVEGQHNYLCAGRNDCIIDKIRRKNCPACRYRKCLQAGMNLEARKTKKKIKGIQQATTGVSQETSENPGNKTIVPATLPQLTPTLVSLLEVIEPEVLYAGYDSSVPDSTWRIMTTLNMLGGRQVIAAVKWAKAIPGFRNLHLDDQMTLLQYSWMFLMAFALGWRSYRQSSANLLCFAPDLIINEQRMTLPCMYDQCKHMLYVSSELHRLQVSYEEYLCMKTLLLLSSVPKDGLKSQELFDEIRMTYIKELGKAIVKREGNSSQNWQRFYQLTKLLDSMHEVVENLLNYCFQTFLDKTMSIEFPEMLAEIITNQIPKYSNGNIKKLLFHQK
# Description: as §1
# [4] = tested on: secretion of cytokine IL-8 in human monocyte cell line THP-1; assay: inhibition of LPS-triggered IL-8 secretion in THP-1 cells (ELISA); type: cell-based
# Description: The concentration of the cytokines was determined in the supernatant by means of commercially available ELISA kits.
# [5] = target: T4, androgen receptor (AR) (Homo sapiens, UniProt P10275); assay: binding to recombinantly produced androgen receptor; settings: recombinant receptor
# T4 construct: made in house
# T4 sequence (P10275 1-920): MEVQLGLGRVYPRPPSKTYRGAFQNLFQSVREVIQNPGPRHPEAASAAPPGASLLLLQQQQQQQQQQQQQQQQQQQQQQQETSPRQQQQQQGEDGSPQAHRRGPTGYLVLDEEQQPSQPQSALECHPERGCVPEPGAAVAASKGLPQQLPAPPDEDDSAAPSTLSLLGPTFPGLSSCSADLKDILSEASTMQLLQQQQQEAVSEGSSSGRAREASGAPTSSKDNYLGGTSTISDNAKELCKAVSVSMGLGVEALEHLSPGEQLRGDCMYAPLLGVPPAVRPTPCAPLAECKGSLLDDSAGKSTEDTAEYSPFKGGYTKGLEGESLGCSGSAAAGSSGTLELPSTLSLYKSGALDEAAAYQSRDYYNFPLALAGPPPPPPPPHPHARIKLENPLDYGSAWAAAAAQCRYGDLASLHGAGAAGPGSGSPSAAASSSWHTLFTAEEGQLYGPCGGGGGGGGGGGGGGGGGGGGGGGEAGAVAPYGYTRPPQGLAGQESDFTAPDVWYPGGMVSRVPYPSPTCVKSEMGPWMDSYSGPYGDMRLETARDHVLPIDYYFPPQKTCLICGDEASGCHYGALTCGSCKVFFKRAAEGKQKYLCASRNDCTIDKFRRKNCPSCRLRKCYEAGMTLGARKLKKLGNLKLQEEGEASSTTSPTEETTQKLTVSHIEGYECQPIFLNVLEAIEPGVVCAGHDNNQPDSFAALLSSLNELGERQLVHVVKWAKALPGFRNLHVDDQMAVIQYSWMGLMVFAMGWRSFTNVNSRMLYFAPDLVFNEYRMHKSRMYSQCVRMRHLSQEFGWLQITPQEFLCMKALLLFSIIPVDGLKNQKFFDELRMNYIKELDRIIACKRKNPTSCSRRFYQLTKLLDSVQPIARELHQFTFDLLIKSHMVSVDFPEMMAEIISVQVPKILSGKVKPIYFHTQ
# Description: as §1
compound,measurement,setting,value
"CC(C)(CC(O)(CNc1cccc2c1cnn2-c1ccc(F)nc1)C(F)(F)F)c1cc(F)ccc1O (stereo not drawn) [Example B7, 4-(5-Fluoro-2-hydroxyphenyl)-4-methyl-1-{[1-(6-fluoropyridin-3-yl)indazol-4-yl]amino}-2-(trifluoromethyl)pentan-2-ol]",IC50,[1],> 1000 nM
same,IC50,[2],> 1000 nM
same,IC50,[3],6 nM
same,IC50,"[4]; Homo sapiens, THP-1, supernatant ELISA, read-out: IC50(IL8)",0.72 nM
same,eff. relative to dexamethasone (IL-8 inhibition),[4]; THP-1,97%
same,IC50,[5],> 1000 nM
